In patent US11401278B2, “Macrocyclic indole derivatives” (The Broad Institute, Inc., priority 2017, dated 2022):
Where a name gives a salt, the structure may show the parent alone.

How the values were obtained:
MCL-1 = MCL-1 (Homo sapiens (Human), UniProt Q07820, K194A/K197A/R201A); assay: Protein-protein interaction assay MCL-1/Noxa BH3 peptide (MCL-1 assay, TR-FRET); format: binding; conditions: MBP-MCL-1 / Noxa BH3 peptide, median
In short: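 MBP-fused MCL-1 (aa 173-329, 1 nM) was pre-incubated with compound for 10 min at 22° C, then biotinylated Noxa BH3 peptide (1 nM) was added with anti-MBP-Eu cryptate and streptavidin-XL665. Incubation was 1 h at 22° C, then overnight at 4° C, in Tris pH 7 buffer. The 665/620 nm ratio over 11 concentrations (0.1 nM-20 μM) gave IC50 by 4-parameter fit.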

SUDHL5 [1] = assay: Induction of caspase-3/7 activity (Assay 4), SUDHL5; format: cell-based; conditions: caspase-3/7 induction, 3 hours, median
In short: (§1)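 Caspase-3/7 activity measured by Caspase-Glo 3/7 luminescence in DLBCL cells after 3 h compound treatment at 37 °C. Medium-only background subtracted. EC50 fitted with C0 fixed at 1 and top set to the reference compound's plateau/max induction.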

SUDHL10 [2] = assay: Induction of caspase-3/7 activity (Assay 4), SUDHL10; format: cell-based; conditions: caspase-3/7 induction, 3 hours, median
In short: as §1

SUDHL5 [3] = assay: Antiproliferation assay (Assay 7), SUDHL5; format: cell-based; conditions: CellTiter-Glo, 72 hours, median, read-out: Antiproli SUDHL5 [M] (median) IC50
In short: (§2)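 Anti-proliferative effect is determined from CellTiter-Glo signal after a 72-hour incubation at 37° C, with a time-zero reference plate measured in parallel.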

HMC-1-8 = assay: Antiproliferation assay (Assay 7), HMC-1-8; format: cell-based; conditions: CellTiter-Glo, 72 hours, several values per example, read-out: Antiproli HMC-1-8 [M] IC50
In short: as §2

SK-MEL-2 = assay: Antiproliferation assay (Assay 7), SK-MEL-2; format: cell-based; conditions: CellTiter-Glo, 72 hours, median, read-out: Antiproli SK-MEL-2 [M] median IC50
Experimental: (§3) Assessment of the Anti-Proliferative Effect of Compounds in Different Cell Lines
(§4) The impact of compounds on the proliferation of different cell lines was assessed using the CellTiter-Glo® Luminescent Cell Viability reagent from Promega (G7573).
(§5) In parallel, cells were plated in a reference (day 0) plate for time zero determination.
(§6) Rim wells were excluded. The cells were incubated for 72 hours in a humidified incubator at 37° C. The day 0 plate was measured by adding 30 μL/well of CTG solution (CellTiter-Glo® Luminescent Cell Viability reagent, Promega G7573) to time zero wells in the reference plate followed by a 10 minutes incubation and luminescence reading at 0.1 ms. using the PHERAstar FS microplate reader (BMG Labtech).
(§7) After 72 hours incubation, the treated plates were measured in the same way as the day 0 plate mentioned above.

SNU-16 = assay: Antiproliferation assay (Assay 7), SNU-16; format: cell-based; conditions: CellTiter-Glo, 72 hours, median, read-out: Antiproli SNU-16 [M] median IC50
Experimental: as §3, §4, §5, §6, §7

A-431 = assay: Antiproliferation assay (Assay 7), A-431; format: cell-based; conditions: CellTiter-Glo, 72 hours, median, read-out: Antiproli A-431 [M] median IC50
Experimental: as §3, §4, §5, §6, §7

PA-1 = assay: Antiproliferation assay (Assay 7), PA-1; format: cell-based; conditions: CellTiter-Glo, 72 hours, median, read-out: Antiproli PA-1 [M] median IC50
Experimental: as §3, §4, §5, §6, §7

DM-S114 = assay: Antiproliferation assay (Assay 7), DM-S114; format: cell-based; conditions: CellTiter-Glo, 72 hours, median, read-out: Antiproli DM-S114 [M] median IC50
Experimental: as §3, §4, §5, §6, §7

SUDHL5 [4] = assay: Induction of cytotoxicity (Assay 6), SUDHL5; conditions: read-out: Cytotox SUDHL5 [M] (median) IC50, CellTiter-Glo, 5 hours, SUDHL5
Experimental: Assay 6 Induction of Cytotoxicity Upon Treatment of Cells with Selected Compounds
Therefore, cytotoxicity assays were run in parallel in SUDHL5 and SUDHL10 cells.
The different cell lines were plated in culture medium (RPMI 1640 [GIBCO #22400-089] supplemented with 10% Fetal Bovine Serum) at a density of 3,300 cells in 30 μl/well in a sterile, solid black, flat bottom, polystyrene, TC-treated 384-well microplate (Corning #3571) using Multidrop Combi Reagent Dispenser. As a control, medium without cells was also added to the plate. Cells were incubated in a humidified incubator at 37° C. overnight. On the next day, the cells were treated with compounds (stock solution, 10 mM in DMSO) using the HP D300 Digital Dispenser in a concentration range of 3.3×10e-5 M (33 μM) to 5×10e-9 M (5 nM) in a single-dot curve with at least 16 dilutions and a DMSO concentration of 0.33%. Rim wells were excluded. The cells were incubated for 5 hours in a humidified incubator at 37° C. After this incubation, 30 μl of CellTiter-Glo® Luminescent Cell Viability reagent (Promega, G7573) was added to each well using the Multidrop Combi Reagent Dispenser, followed by 15 minutes incubation on a shaker at room temperature. Finally, luminescence was read at 0.1 ms, with a gain of 3000 using the PHERAstar FS microplate reader (BMG Labtech).

SUDHL10 [5] = assay: Induction of cytotoxicity (Assay 6), SUDHL10; conditions: read-out: Cytotox SUDHL10 [M] (median) IC50, CellTiter-Glo, 5 hours, SUDHL10

Sequence of MCL-1 (Q07820 whole entry K194A/K197A/R201A, looked up, the tested form may be a part): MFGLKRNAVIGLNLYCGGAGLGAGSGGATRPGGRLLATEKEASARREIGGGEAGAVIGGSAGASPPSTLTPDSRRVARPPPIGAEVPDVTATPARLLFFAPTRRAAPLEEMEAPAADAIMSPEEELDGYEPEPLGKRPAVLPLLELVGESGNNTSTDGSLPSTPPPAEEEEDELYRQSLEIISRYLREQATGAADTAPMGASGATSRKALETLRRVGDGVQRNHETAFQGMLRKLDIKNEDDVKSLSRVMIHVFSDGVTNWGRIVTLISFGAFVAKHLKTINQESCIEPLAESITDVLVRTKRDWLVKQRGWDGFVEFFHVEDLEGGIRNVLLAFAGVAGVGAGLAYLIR

CCc1c2c(nn1C)C(CCN1CCOCC1)N(C)S(=O)(=O)CCCn1c(C(=O)O)c(CCCOc3cccc4cc(F)ccc34)c3ccc(Cl)c-2c31 (single isomer, unassigned; enantiomer 1) [Example 75, 4-chloro-3-ethyl-7-{3-[(6-fluoronaphthalen-1-yl)oxy]propyl}-2,14-dimethyl-15-[2-(morpholin-4-yl)ethyl]-13,13-dioxo-10,11,12,13,14,15-hexahydro-2H-13lambda^6-pyrazolo[3′,4′:4,5][1,2,8]thiadiazacycloundecino[6,7,8-hi]indole-8-carboxylic acid-N-ethylethanamine Salt (Enantiomer 1)]
IC50 (MCL-1): 150 nM | EC50 (SUDHL5 [1]): 11000 nM | EC50 (SUDHL10 [2]): 35000 nM | IC50 (SUDHL5 [3]): 1.4e-05 M | IC50 (HMC-1-8): > 3.3e-05 M | IC50 (SK-MEL-2): 4.64e-07 M | IC50 (SNU-16): 1.26e-07 M | IC50 (A-431): 3.24e-07 M | IC50 (PA-1): 3.2e-08 M | IC50 (DM-S114): 3.66e-08 M | IC50 (SUDHL5 [4]): 1.6e-05 M | IC50 (SUDHL10 [5]): 1.6e-05 M
